Tests used:
[1] = Oxidation stability of 1% PPD patch test formulation in paraffin (mass spectrometry); assay type: physicochemical; details: several days in air
Excerpt: (§1) This is true even after 2 days of patch test as the test field remains colourless.

[2] = test system: cysteine peptide (Ac-RFAACAA-COOH); assay: Direct Peptide Reactivity Assay, cysteine peptide; details: for % of Cysteine depletion, Avg / % of Cysteine depletion, Rep 2 / % of Cysteine depletion, Rep 3 / Reactivity Class: 1:10; for % of Cysteine depletion, Rep 1: peptide 0.02 mM : test chemical 0.2 mM (1:10); for Reactivity Class: cysteine
Description: For cysteine DPRA, an additional step was performed.
The mass spectrometric analysis was performed by use of a AB SCIEX QTRAP 5500 tandem mass spectrometry (MS/MS) system (AB SCIEX, Framingham, Mass., USA) operating in triple quadrupole positive mode (ESI+) equipped with an AB Sciex Turbo Ion Spray interface. Acquisition and analysis of data were performed with Analyst software ver. 1.6.2 (Applied Biosystems).

sensitized patients = assay: Patch test with 1% PPD formulation in paraffin; assay type: in vivo, human; details: 1% PPD patch test formulation in paraffin
Excerpt: as §1
Thus there remains a need for hair and temporary skin colourings that avoid such allergic responses and may be suitable for use in subjects who show sensitivity to conventional colouring materials.

[3] = Skin permeation in vertical Franz diffusion cells; assay type: in vitro ADME, porcine
How it was run: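 Dermatomed porcine ear skin (~1.0 mm, barrier checked by TEWL) in vertical Franz cells at 37 °C, 0.64 cm^2 area, PBS receptor, donor of 1% w/v solutions in argon-purged water (n=3). Receptor sampled over 8 h with mass balance, LCMS quantification; flux and permeability coefficients from steady-state Fick's law fits.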

[4] = test system: cysteine and lysine peptides; assay: Direct Peptide Reactivity Assay, mean of cysteine and lysine depletion (FIG. 12)
HaCaT cells = assay: In vitro cell cytotoxicity (MTT) assay on HaCaT cells; assay type: cell-based, human; details: Homo sapiens, HaCaT; 72 h incubation; MTT
How it was run: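 HaCaT keratinocytes seeded at 5×10^3/well, after 24 h exposed 72 h to test compounds serially diluted from 500 μM to 1.9 μM in 10% FBS DMEM. MTT (1 mg/ml, 4 h) read at 570 nm; viability expressed as percent of untreated control.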

Nc1ccc(N)cc1 [PPD, para-phenylenediamine, reference compound]
Oxidation stability in paraffin [1]: protected against oxidation | % of Cysteine depletion, Avg ([2]; 20 min): 15.1% | % of Cysteine depletion, Rep 2 ([2]; 20 min): 14% | % of Cysteine depletion, Rep 3 ([2]; 20 min): 15.2% | % of Cysteine depletion, Rep 1 ([2]; 20 min): 16.2% | % of Cysteine depletion, Avg ([2]; 24 h): 77.6% | % of Cysteine depletion, Rep 2 ([2]; 24 h): 78% | % of Cysteine depletion, Rep 3 ([2]; 24 h): 77.2% | % of Cysteine depletion, Rep 1 ([2]; 24 h): 77.7% | Reactivity Class ([2]; 20 min): low and Low | Reactivity Class ([2]; 24 h): High | Skin reaction of sensitized patients (sensitized patients): clear localised contact dermatitis | % Parent compound Penetrated (mean) ([3]; 1% W/V applied, 8 h): 0.162% | % converted to metabolite (mean) ([3]; 1% W/V applied, 8 h): 3.17% | Mass balance in the Franz cells ([3]; 8 h): > 99% | Jss · 10^4 (steady state flux) ([3]; mean): 4.3 mg cm^−2 h^−1 | tlag (lag time) ([3]; mean): 4.2 h | recovery at 8 h, 1 % w/v ([3]; pig, 1% W/V applied, 8 h, read-out: % Parent compound Recovery (mean)): 90.3% | Papp at 8 h, 1 % w/v ([3]; pig, mean, read-out: kp · 10^5 (steady state permeability coefficient) (converted)): 1190 ×10⁻⁶ cm/s | Dm · 10^4 (diffusion coefficient in skin) ([3]; steady state, mean): 5.00 cm^−2 h^−1 | Ks/d (skin-donor partition coefficient) ([3]; steady state, mean, 1% w/v in water, 8 h): 0.010 | Sensitizing potential predicted from mean peptide depletion ([4]; cysteine 1:10 / lysine 1:50 model): strong sensitizer | Mean peptide depletion ([4]; mean of cysteine (1:10) and lysine (1:50), FIG. 12): 55.5% | IC50 (HaCaT cells): 23.5 µM

Reference: patent publication US11129782B2, “Derivatives of PPD useful for coloring hair and skin” (National University of Singapore, priority 2017, dated 2021)
